Results on eleven compounds are retold here after patent US8535689B2, “Identification of bacterial autoinducer and use in treating bacterial pathogenicity” (priority 2007, dated 2013).

For series [1], the system named is CAI-1 reporter strain MM920 (V. cholerae El Tor C6706str ΔcqsA ΔluxQ/pBB1 (luxCDABE from V. harveyi)). Put plainly: Bioluminescence assay in V. cholerae CAI-1 reporter strain MM920. The conditions noted are these: for bioluminescence as a percentage of the bioluminescence activity of the V. cholerae CAI-1 autoinducer: reporter strain MM920, reference (S)-3-hydroxytridecan-4-one (CAI-1), FIG. 13; for activation of the V. cholerae quorum sensing circuit: to different degrees, pattern C13(5)>C13(R)>C12(S)≈C12(R)>C11(S)>C11(R); for activation of the V. cholerae quorum sensing circuit / fold greater biological activity than the molecule one carbon shorter: FIG. 3; for fold greater biological activity than the molecule one carbon shorter: side chain length comparison. It is filed as cell-based, Vibrio cholerae. Here is the method: CAI-1 Purification from E. coli. V. cholerae cqsA (VCA0523) was cloned into pTrc99A and transformed into E. coli strain DH5α. The recombinant strain was grown at room temperature with aeration in 2.4 L of M9 medium supplemented with glucose (4 g/L), leucine (0.5 g/L), and ampicillin (0.1 g/L). cqsA expression was induced for 16 h with 0.5 mM IPTG. Following centrifugation at 10,000×g and passage through a 0.22 μm filter, the cell-free culture fluid was mixed with 0.6 v dichloromethane (DCM) in a reparatory funnel. The organic phase was isolated, evaporated, and assayed for CAI-1 activity using the bioluminescent V. cholerae CAI-1 reporter strain MM920 (V. cholerae El Tor C67O6str ΔcqsA ΔluxQ/pBB1 (luxCDABE from V. harveyi)), as described in Miller et al. (2002). The extract was dissolved in DCM and further purified by passage through silica gel with 0.5 L of 7:3 DCM:methanol, followed by concentration via evaporation. 50-100 mg of the concentrate was dissolved in ˜1 mL DCM, injected onto a (2×25-cm) ethyl-pyridine HPLC column, and eluted using a gradient of increasing ethyl acetate in hexanes (0-80%) at 20 mL/min. Fractions were tested for CAI-1 activity; active fractions were pooled.
Bioluminescence Assays. When assaying column fractions for autoinducer activity, 5% of each fraction was evaporated and dissolved in a mixture of water:acetonitrile (2:1). This preparation was added at 2% volume to the CAI-1 reporter strain MM920 (V. cholerae El Tor C67O6str ΔcqsA ΔluxQ/pBB1 (luxCDABE from V. harveyi)) according to previously described methods, as described in Miller et al. (2002). Synthetic CAI-1 preparations were dissolved in DMSO and supplied at 0.5% total volume to MM920 at specified concentrations.
[…]. Bioluminescence measurements at varying concentrations of analogue (generally from […]) were measured using a Wallac EnVision 2103 Multilabel Reader (Perkin Elmer, Waltham, Mass.).

Series [2] in a line: CAI-1 pH stability, read with the V. cholerae bioluminescence assay. The format is physicochemical. The conditions noted are these: pH 2, 4, 6, 7, 8, 10, 12 potassium phosphate buffer; 5, 20, 60 minutes or overnight; FIG. 6b. Here is the method: CAI-1 stock in DMSO was diluted 1:128 into 100 mM potassium phosphate buffer at specified pH values to a final autoinducer concentration of 400 μM. Following incubation at room temperature for specified times, samples were neutralized with an equal volume of 100 mM potassium phosphate buffer (e.g. pH 10 buffer was added to pH 4 buffered autoinducer). Neutralized samples, now with 200 μM CAI-1, were chilled briefly on ice and frozen in dry ice/ethanol. Autoinducer samples were thawed, diluted 1:3 in 100 mM pH 7 potassium phosphate buffer, and read with the V. cholerae bioluminescence assay. Diluted sample was added at 5% of reporter culture volume, for final concentrations of 3.3 μM CAI-1 and 5 mM potassium phosphate.

Series [3] can be described thus: CAI-1 thermal stability, read with the V. cholerae bioluminescence assay. It is filed as physicochemical. The settings on record: pH 7 phosphate buffer, FIG. 6a. Here is the method:
CAI-1 stock in DMSO was diluted 1:128 into 10 mM potassium phosphate buffer at pH 7 to a final autoinducer concentration of 400 μM. Samples were incubated for specified lengths of time, chilled briefly on ice, and frozen in dry ice/ethanol. Samples were thawed, diluted 1:3 in the same phosphate buffer, and read with the V. cholerae bioluminescence assay. Diluted sample was added at 2.5% of reporter culture volume, for final concentrations of 3.3 μM CAI-1 and 250 μM potassium phosphate.

Series [4] concerns TcpA, a subunit of the toxin co-regulated pilus (TCP). Kind of series: Western blot of TcpA production in V. cholerae strains treated with synthetic CAI-1. The settings on record: ΔluxQ. It is filed as cell-based, Vibrio cholerae. The source says:
Western Blot Analysis. […]. Anti-TcpA antibody and Anti-Rabbit IgG Horseradish Peroxidase Conjugate (Promega) were used with the SuperSignal West Pico Chemiluminescent Substrate (Pierce) system.
Results. A major goal of quorum-sensing research is to develop strategies to artificially manipulate quorum-sensing-controlled processes in bacteria. […]. Proc. Natl. Acad. Sci. USA 84, 2833-2837 (1987), hereby incorporated by reference into this application. […]. […]. Importantly, synthetic CAI-1 had no effect on TcpA production in a ΔluxQ, ΔcqsS strain, which cannot respond to either CAI-1 or AI-2 (FIG. 4b, bottom row). […]
Background: Immunoblotting shows a protein as a band on a membrane.

In series [5] the test system is V. cholerae BH1575 (El Tor C6706str ΔluxS ΔcqsA). Kind of series: CAI-1 stability in culture with V. cholerae cells. The format is in vitro ADME, Vibrio cholerae. The settings on record: V. cholerae ΔluxS ΔcqsA in LB, 37° C. overnight, 10 μM CAI-1; FIG. 6d. Here is the method: (§1) Early stationary phase E. coli KX1200 (MG1655 ΔluxS) and V. cholerae BH1575 (El Tor C6706str ΔluxS ΔcqsA) were diluted to OD 0.1 in LB medium. Along with sterile LB medium, they were shaken overnight at 37° C. with and without 10 μM CAI-1 supplementation. Culture and LB samples were centrifuged at 10,000×g, filtered with 0.22 μm filters, and read at 10% final culture volume using the V. cholerae CAI-1 reporter bioassay.

Series [6] concerns E. coli KX1200 (MG1655 ΔluxS). Put plainly: CAI-1 stability in culture with E. coli cells. It is filed as in vitro ADME, Escherichia coli. The settings on record: E. coli ΔluxS in LB, 37° C. overnight, 10 μM CAI-1; FIG. 6d. Here is the method: as §1

Entries after “also recorded” stand apart in the source; their conditions may differ.

As for `[2H]C([2H])(C)C(O)C(=O)CCCCCCCCC` (stereo not drawn) [2,2-D2-3-hydroxytridecan-4-one], in series [1], the “bioluminescence as a percentage of the bioluminescence activity of the V. cholerae CAI-1 autoinducer” value (“bioluminescence as a percentage” below) is recorded as “equivalent activity to CAI-1”.

As to `CCCCCCCC(=O)[C@H](O)CC` [C11(R), (R)-3-hydroxyundecan-4-one], in series [1], the “activation of the V. cholerae quorum sensing circuit” value (“activation” for short) is reported as “activated”.

For `CCCCCCCC(=O)[C@@H](O)CC` [C11(S), (S)-3-hydroxyundecan-4-one], the “activation” value in series [1] is “activated”.

For the compound `CCCCCCCCCC(=O)[C@@H](O)CC` [CAI-1, (S)-3-hydroxytridecan-4-one], the pH stability result in series [2] is given as “stable under a wide range of pH values”. The “bioluminescence as a percentage” value in series [1] stood at 100%. In series [1], the “activation” value is “activated”. For the same compound, the heat stability entry in series [3] (high temperatures (up to 80° C.)) is “subject to degradation”; in series [3] (physiologically relevant temperatures, 5, 20, 60 minutes or overnight) it was “heat stable”. The TcpA production result in series [4] (cqsA+ V. cholerae strain, FIG. 4b middle row) is recorded as “repress TcpA production; also recorded: decreased”; in series [4] (ΔcqsA V. cholerae strain, CAI-1 at concentrations up to 10 μM, FIG. 4b top row), “repress TcpA production; also recorded: substantially repressed”; in series [4] (ΔcqsS V. cholerae strain, FIG. 4b bottom row), “no effect”. Further, the “effect of cells on CAI-1 levels” value in series [5] and in series [6] was “do not adversely affect CAI-1 levels” throughout.

Consider `CCCCCCCCC(=O)[C@@H](O)CC` [Compound 5, (S)-3-hydroxydodecan-4-one], for which, in series [1], the “bioluminescence as a percentage” value is on record as “twenty” and the “activation” value is reported as “activated”.

Take `CCCCCCCCC(=O)[C@H](O)CC` [Compound 6, (R)-3-hydroxydodecan-4-one]: in series [1], the “bioluminescence as a percentage” value is “twenty” and the “activation” value is “activated”.

With `CCCCCCCCCC(=O)[C@H](O)CC` [Compound 7, (R)-3-hydroxytridecan-4-one], in series [1], the “bioluminescence as a percentage” value is listed as “forty” and the “activation” value is listed as “activated”.

As for `CCCCCCCCCC(=O)C(=O)CC` [Compound 10, tridecane-3,4-dione], the “bioluminescence as a percentage” value in series [1] is given as “ten”; in series [1] (listed as tridecan-3,4-dione) it was 10%.

Consider `CCCCCCCCCC(=O)C(N)CC.Cl` (stereo not drawn) [Compound 22, 3-aminotridecan-4-one hydrochloride], for which the “bioluminescence as a percentage” value in series [1] is “equivalent activity to CAI-1”.

`CCCCCCCCCC(=O)C(O)CC` (stereo not drawn) [thirteen-carbon molecule, 3-hydroxytridecan-4-one]: the “fold greater biological activity than the molecule one carbon shorter” value in series [1] was 8 fold.

`CCCCCCCCC(=O)C(O)CC` (stereo not drawn) [twelve-carbon molecule, 3-hydroxydodecan-4-one]: the “fold greater biological activity than the molecule one carbon shorter” value in series [1] came to 8 fold.
